# “And” between values parts separate entries of the source, which are not always exact repeats. Identical values can stand only once. Like-named read-outs stand apart in the source and are kept apart here.
# Assays:
# CA hexamer = details: ref Yant et al, Nat.Med, 2019;[4]; read-out: Binding Affinity (KD), CA hexamer; cited from earlier work
# [1] = ref Yant et al, Nat.Med, 2019;[4]; cited from earlier work
# in vitro = details: rhesus
# Description: After a 24-h equilibration period at 37 °C, samples were quenched with 4 volumes of 90% (vol/vol) acetonitrile and 10% (vol/vol) methanol containing internal standard. Then, they were quantified using the AB Sciex API 4000 LC–MS/MS system (GenTech Scientific) with electrospray ionization in positive mode and multiple-reaction monitoring and were analysed using Analyst 1.6.1 software. The fold change value in 100% rhesus plasma was then calculated using the plasma/CCM ratio after correcting for the sample dilution factor and the percentage of free fraction in the matrix.
# [2] = Plasma GS-CA1 pharmacokinetics in the repeat SHIV challenge study; type: in vivo, rhesus macaques of Indian origin
# Description: For the challenge study, 24 outbred rhesus macaques of Indian origin were assigned to the three study groups with even sex and weight distributions. All animals were housed at Alpha Genesis (Yemassee, SC), and all procedures were conducted in compliance with all relevant local, state and federal regulations and were approved by the Alpha Genesis IACUC. […] The injection sites were monitored daily by veterinary staff for 3 days. Beginning in week 1, animals in all three groups were challenged by the intrarectal route with 1 ml of RPMI containing the specified dilution of a 3.62 × 10^3 TCID50 SHIV-SF162P3 stock. At each respective time point, the challenges were performed on the same day, using the same virus stock and inoculation method across the three groups. Whole blood was collected and processed into plasma and PBMCs as necessary to assess routine haematology, clinical chemistry, viral load and serology as well as for bioanalysis of drug levels. The animals were considered to be protected if they remained SHIV negative by plasma PCR assay and seronegative by enzyme immunoassay throughout the 15-week challenge phase and the 9-week follow-up.
# Rhesus plasma samples were stored frozen at −80 °C.
# [3] = both sexes, Indian origin, rhesus monkey, in vivo, sc, 150 mg/kg, 150 mg/kg single s.c., n=8, mean ± SD
# [4] = both sexes, Indian origin, rhesus monkey, in vivo, sc, 300 mg/kg, 300 mg/kg single s.c., n=8, mean ± SD
# [5] = both sexes, Indian origin, rhesus monkey, in vivo, sc, 150 mg/kg single s.c., n=8, mean ± SD
# [6] = both sexes, Indian origin, rhesus monkey, in vivo, sc, 300 mg/kg single s.c., n=8, mean ± SD
compound,measurement,setting,value
CC(C)(C#Cc1ccc(-c2ccc(Cl)c3c(NS(=O)(=O)C4CC4)nn(CC(F)F)c23)c([C@H](Cc2cc(F)cc(F)c2)NC(=O)Cn2nc(C(F)F)c3c2C(F)(F)[C@@H]2C[C@H]32)n1)S(C)(=O)=O [GS-CA1],Kd,CA hexamer,0.38 nM
same,"T1/2, human cryopreserved hepatocytes",[1],5.42 days
same,"recovery at 24 h, 2 μM",in vitro,60%
same,time above the rhesus paEC95,[2]; 150 mg/kg single s.c.,8–15 weeks
same,time six times above the rhesus paEC95,[2]; 150 mg/kg single s.c.,3–7 weeks
same,Cmax,"[2]; 150 mg/kg single s.c., n=8, mean ± SD",3020 ± 1070 nM
same,Plasma GS-CA1,"[2]; 150 mg/kg single s.c., Week 1, individual animals",899.55 nM
same,Plasma GS-CA1,"[2]; 150 mg/kg single s.c., Week 2, individual animals",1188.65 nM
same,Plasma GS-CA1,"[2]; 150 mg/kg single s.c., Week 3, individual animals",497.91 nM
same,Plasma GS-CA1,"[2]; 150 mg/kg single s.c., Week 4, individual animals",153.01 nM
same,Plasma GS-CA1,"[2]; 150 mg/kg single s.c., Week 5, individual animals",181.45 nM
same,Plasma GS-CA1,"[2]; 150 mg/kg single s.c., Week 6, individual animals",238.73 nM
same,Plasma GS-CA1,"[2]; 150 mg/kg single s.c., Week 7, individual animals",104 nM
same,Plasma GS-CA1,"[2]; 150 mg/kg single s.c., Week 8, individual animals",126.07 nM
same,Plasma GS-CA1,"[2]; 150 mg/kg single s.c., Week 9, individual animals",74.21 nM and 60.58 nM
same,Plasma GS-CA1,"[2]; 150 mg/kg single s.c., Week 10, individual animals",50.06 nM and 64.16 nM
same,Plasma GS-CA1,"[2]; 150 mg/kg single s.c., Week 11, individual animals",28.74 nM and 29.18 nM
same,Plasma GS-CA1,"[2]; 150 mg/kg single s.c., Week 12, individual animals",46.73 nM and 64.14 nM
same,Plasma GS-CA1,"[2]; 150 mg/kg single s.c., Week 13, individual animals",44.36 nM
same,Plasma GS-CA1,"[2]; 150 mg/kg single s.c., Week 14, individual animals",34.07 nM
same,Plasma GS-CA1,"[2]; 150 mg/kg single s.c., Week 15, individual animals",17.38 nM
same,Plasma GS-CA1,"[2]; 150 mg/kg single s.c., Week 16, individual animals",12.74 nM
same,Plasma GS-CA1,"[2]; 150 mg/kg single s.c., Week 17, individual animals",16.54 nM
same,Plasma GS-CA1,"[2]; 150 mg/kg single s.c., Week 18, individual animals",11.37 nM
same,Plasma GS-CA1,"[2]; 150 mg/kg single s.c., Week 19, individual animals",19.32 nM
same,Plasma GS-CA1,"[2]; 150 mg/kg single s.c., Week 20, individual animals",17.47 nM
same,Plasma GS-CA1,"[2]; 150 mg/kg single s.c., Week 21, individual animals",4.49 nM
same,Plasma GS-CA1,"[2]; 150 mg/kg single s.c., Week 22, individual animals",3.38 nM
same,Plasma GS-CA1,"[2]; 150 mg/kg single s.c., Week 23, individual animals",2.14 nM
same,Plasma GS-CA1,"[2]; 150 mg/kg single s.c., Week 24, individual animals",4.67 nM
same,time above the rhesus paEC95,[2]; 300 mg/kg single s.c.,14–16 weeks
same,time six times above the rhesus paEC95,[2]; 300 mg/kg single s.c.,5–8 weeks
same,Cmax,"[2]; 300 mg/kg single s.c., n=8, mean ± SD",5530 ± 1470 nM
same,concentration at 12 week,"[2]; both sexes, Indian origin (outbred), rhesus monkey, in vivo, 300 mg/kg, Plasma GS-CA1, GS-CA1 300mg/kg, Week 12, individual animals",83.4 nM
same,concentration at 15 week,"[2]; both sexes, Indian origin (outbred), rhesus monkey, in vivo, 300 mg/kg, Plasma GS-CA1, GS-CA1 300mg/kg, Week 15, individual animals",45.4 nM
same,concentration at 12 weeks,"[2]; both sexes, Indian origin, outbred, rhesus monkey, in vivo, 300 mg/kg, Plasma GS-CA1, 300 mg/kg single s.c., Week 12, individual animals",83.4 nM
same,concentration at 15 weeks,"[2]; both sexes, Indian origin, outbred, rhesus monkey, in vivo, 300 mg/kg, Plasma GS-CA1, 300 mg/kg single s.c., Week 15, individual animals",45.4 nM
same,Cmax,[2]; [3],3000 nM
same,Tmax,[2]; [3],~1 days
same,Cmax,[2]; [4],5500 nM
same,Tmax,[2]; [4],~1.75 days
same,AUC(0-inf),[2]; [5],960 ± 435 µM·h
same,AUC(0-t),[2]; [5],959 ± 435 µM·h
same,half-life,"[2]; both sexes, Indian origin, rhesus monkey, in vivo, sc, 150 mg/kg single s.c., n=8, mean ± SD, read-out: t1/2 (converted)",13.2 ± 5.5 days
same,AUC(0-inf),[2]; [6],2040 ± 722 µM·h
same,AUC(0-t),[2]; [6],2040 ± 722 µM·h
same,half-life,"[2]; both sexes, Indian origin, rhesus monkey, in vivo, sc, 300 mg/kg single s.c., n=8, mean ± SD, read-out: t1/2 (converted)",12 ± 1.88 days
same,half-life,"[2]; both sexes, Indian origin, rhesus monkey, in vivo, range over the 150 and 300 mg/kg groups, read-out: mean half-life",12 to 13.2 days
